According to US20120004193A1, “PROCESS FOR PRODUCTION OF ORALLY INGESTIBLE COMPOSITION CONTAINING ARABINOFURANOSYL VITEXIN, AND USE OF THE COMPOSITION” (Fuji Sangyo Co., Ltd., priority 2009, published 2012):

Tested on: ICR mice
Assay: Sedative and sleep-inducing activities in thiopental sodium-treated mice
Format: in vivo, mouse
Details: 100 mg/kg body weight oral, thiopental sodium 30 mg/kg i.p. 45 minutes later, measured over 40 minutes, compared with negative control group, p<0.01 (Dunnet)
Procedure: The arabinofuranosyl vitexin-isolated product obtained in the above-mentioned procedure (1) was used to study sedative and sleep-inducing effects. A sample was orally administered to six ICR mice (body weight: 40 to 45 g).
As the sample, the ‘arabinofuranosyl vitexin (100 mg/kg body weight)’ dissolved in physiological saline was orally administered. It should be noted that ‘diazepam (2 mg/kg body weight)’ having a sleep-inducing effect was dissolved in physiological saline and orally administered as a positive control, and ‘physiological saline alone’ was orally administered as a negative control.
Then, 45 minutes after the oral administration of the sample, thiopental sodium (30 mg/kg body weight) […] was administered intraperitoneally, and the mice were individually placed in mouse cages (17 cm×27 cm).
In a period from the start of the administration of thiopental sodium to 40 minutes later, a total time when a mouse stopped moving for one or more minutes and got in a sleep state was measured to evaluate the sedative and sleep-inducing effects.
It should be noted that the symbol in FIG. 2 represents that there is a significant difference compared with the negative control group at a risk rate of less than 1% (p<0.01) by a Dunnet multiple comparison assay.

O=c1cc(-c2ccc(O)cc2)oc2c(C3OC(CO)C(O)C(O)C3OC3OC(CO)C(O)C3O)c(O)cc(O)c12 [arabinofuranosyl vitexin, 2″-O-α-D-arabinofuranosyl vitexin]
sedation and sleeping times (total time when a mouse stopped moving for one or more minutes and got in a sleep state): extended significantly
